From patent EP0089538A1, “Optically active derivatives of phenoxy-benzoic acid, process for their preparation and their use as herbicides” (BAYER AG, priority 1982, dated 1983) come the findings set out here.

Holding throughout (format): in vivo
Assay [1] concerns Dicotyledoneae. Kind of assay: Post-emergence test. As to conditions: average effect on several dicots, % damage vs untreated control after three weeks. The source says: (§1) Post-emergence-Test Lösungsmittel: 5 Gewichtsteile Aceton Emulgator : 1 Gewichtsteil Alkylarylpolyglycolether
(§2) Zur Herstellung einer zweckmäßigen Wirkstoffzubereitung vermischt man 1 Gewichtsteil Wirkstoff mit der angegebenen Menge Lösungsmittel, gibt die angegebene Menge Emulgator zu und verdünnt das Konzentrat mit Wasser auf die gewünschte Konzentration.
(§3) Mit der Wirkstoffzubereitung spritzt man Testpflanzen, welche eine Höhe von 5 - 15 cm haben so, daß die jeweils gewünschten Wirkstoffmengen pro Flächeneinheit ausgebracht werden. Die Konzentration der Spritzbrühe wird so gewählt, daß in 2000 1 Wasser/ha die jeweils gewünschten Wirkstoffmengen ausgebracht werden. Nach drei Wochen wird der Schädigungsgrad der Pflanzen bonitiert in % Schädigung im Vergleich zur Entwicklung der unbehandelten Kontrolle. Es bedeuten: • 0 % = keine Wirkung (wie unbehandelte Kontrolle) 100 % = totale Vernichtung

Assay [2] deals with Monocotyledoneae. Briefly: Post-emergence test. As to conditions: average effect on several monocots, % damage vs untreated control after three weeks.
Text: as §1, §2, §3

The subject of assay [3] is Rüben. Kind of assay: Post-emergence test. Conditions: % damage vs untreated control after three weeks.
Text: as §1, §2, §3

The test system of assay [4] is Mais. Briefly: Post-emergence test. Conditions: % damage vs untreated control after three weeks.
Text: as §1, §2, §3

Assay [5] deals with Soja. Kind of assay: Post-emergence test. As to conditions: % damage vs untreated control after three weeks.
Text: as §1, §2, §3

The subject of assay [6] is Dicotyledoneae. Kind of assay: Pre-emergence test. Conditions: average effect on several dicots, % damage vs untreated control after three weeks.
Text: (§4) Pre-emergence-Test Lösungsmittel: 5 Gewichtsteile Aceton Emulgator: 1 Gewichtsteil Alkylarylpolyglycolether
as §2
(§5) Samen der Testpflanzen werden in normalen Boden ausgesät und nach 24 Stunden mit der Wirkstoffzubereitung begossen. Dabei hält man die Wassermenge pro Flächeneinheit zweckmäßigerweise konstant. Die Wirkstoffkonzentration in der Zubereitung spielt keine Rolle, entscheidend ist nur die Aufwandmenge des Wirkstoffs pro Flächeneinheit. Nach drei Wochen wird der Schädigungsgrad der Pflanzen bonitiert in % Schädigung im Vergleich zur Entwicklung der unbehandelten Kontrolle. Es bedeuten: • 0 % = keine Wirkung (wie unbehandelte Kontrolle) 100 % = totale Vernichtung

In assay [7] the test system is Monocotyledoneae. Briefly: Pre-emergence test. Conditions: average effect on several monocots, % damage vs untreated control after three weeks.
Text: as §4, §2, §5

In assay [8] the test system is Rüben. Briefly: Pre-emergence test. Conditions: % damage vs untreated control after three weeks.
Text: as §4, §2, §5

In assay [9] the test system is Mais. Briefly: Pre-emergence test. Conditions: % damage vs untreated control after three weeks.
Text: as §4, §2, §5

The subject of assay [10] is Soja. Briefly: Pre-emergence test. As to conditions: % damage vs untreated control after three weeks.
Text: as §4, §2, §5

In assay [11] the test system is Testpflanzen. Briefly: Pre-emergence test, overall comparison with racemates. As to conditions: compared with the corresponding racemic compounds (A) and (B).
Text: as §4, §2, §5

Assay [12] relates to Testpflanzen. Kind of assay: Post-emergence test, overall comparison with racemates. As to conditions: compared with the corresponding racemic compounds (A) and (B).
Text: as §1, §2, §3

SMILES strings stand for the structures.

With `CCOC(=O)C(C)OC(=O)c1cc(Oc2c(Cl)cc(C(F)(F)F)cc2Cl)ccc1[N+](=O)[O-]` (racemic) [(A), 5-(2,6-Dichlor-4-trifluormethyl-phenoxy)-2-nitro-benzoesäure-(1-ethoxycarbonyl-ethyl)-ester, reference compound], the results for the “Wirkung (in %) Dicotyledoneae” value in [1] (1 kg/ha) and in assay [6] (1 kg/ha) were 100% and 95,6%, respectively. The “Wirkung (in %) Monocotyledoneae” value in [2] (1 kg/ha) is recorded as 92%; in assay [7] (1 kg/ha) it was 69,3%. Besides, the “Wirkung (in %) Rüben” value in [3] (1 kg/ha) and in assay [8] (1 kg/ha) was 100% each time. In addition, the figures for the “Wirkung (in %) Mais” value in assay [4] (1 kg/ha) and in [9] (1 kg/ha) were 95% and 10%, respectively. Besides, the “Wirkung (in %) Soja” value in assay [5] (1 kg/ha) stood at 100%; in [10] (1 kg/ha), 40%.

Regarding `CCOC(=O)C(C)OC(=O)c1cc(Oc2ccc(C(F)(F)F)cc2Cl)ccc1[N+](=O)[O-]` (racemic) [(B), 5-(2-Chlor-4-trifluormethyl-phenoxy)-2-nitro-benzoesäure-(1-ethoxycarbonylethyl)-ester, reference compound], the “Wirkung (in %) Dicotyledoneae” value is listed as 99,9% in assay [1] (1 kg/ha) and 81,4% in [6] (1 kg/ha). Moreover, the “Wirkung (in %) Monocotyledoneae” value in [2] (1 kg/ha) is 89,1%; in [7] (1 kg/ha) it was 61,4%. Besides, the “Wirkung (in %) Rüben” value in assay [3] (1 kg/ha) and in assay [8] (1 kg/ha) was 100% throughout. The “Wirkung (in %) Mais” value came out at 95% in assay [4] (1 kg/ha) and 0% in [9] (1 kg/ha). Besides, the “Wirkung (in %) Soja” value in assay [5] (1 kg/ha) was found to be 99%; in assay [10] (1 kg/ha) it was 0%.

As for `CCOC(=O)[C@H](C)OC(=O)c1cc(Oc2c(Cl)cc(C(F)(F)F)cc2Cl)ccc1[N+](=O)[O-]` [(1), 5-(2,6-Dichlor-4-trifluor-methyl-phenoxy)-2-nitrobenzoesäure-(1-ethoxycarbonyl-ethyl)-ester], the “Wirkung (in %) Dicotyledoneae” value is 99,9% in [1] (0,45 kg/ha) and 88,6% in assay [6] (0,45 kg/ha). Besides, the figures for the “Wirkung (in %) Monocotyledoneae” value in assay [2] (0,45 kg/ha) and in [7] (0,45 kg/ha) were 89,9% and 42,1%, respectively. The figures for the “Wirkung (in %) Rüben” value in assay [3] (0,45 kg/ha) and in [8] (0,45 kg/ha) were 100% and 99%, respectively. Also, the “Wirkung (in %) Mais” value in [4] (0,45 kg/ha) is 95%; in assay [9] (0,45 kg/ha), 0%. The “Wirkung (in %) Soja” value worked out at 100% in assay [5] (0,45 kg/ha) and 10% in assay [10] (0,45 kg/ha). The “herbizide Wirksamkeit” value in assay [11] and in assay [12] was “bessere herbizide Wirksamkeit” in each case.

For `CCOC(=O)[C@H](C)OC(=O)c1cc(Oc2ccc(C(F)(F)F)cc2Cl)ccc1[N+](=O)[O-]` [(2), 5-(2-Chlor-4-trifluormethyl-phenoxy)-2-nitro-benzoesäure-(1-ethoxycarbonyl-ethyl)-ester], the “Wirkung (in %) Dicotyledoneae” value in assay [1] (0,51 kg/ha) is recorded as 99,9%; in assay [6] (0,51 kg/ha) it was 77,1%. Also, the “Wirkung (in %) Monocotyledoneae” value in [2] (0,51 kg/ha) is reported as 83,3%; in assay [7] (0,51 kg/ha), 74,1%. Besides, the entries for the “Wirkung (in %) Rüben” value in assay [3] (0,51 kg/ha) and in [8] (0,51 kg/ha) were 100% and 99%, respectively. Further, the “Wirkung (in %) Mais” value in [4] (0,51 kg/ha) is 100%; in assay [9] (0,51 kg/ha), 0%. In addition, the “Wirkung (in %) Soja” value in assay [5] (0,51 kg/ha) is given as 99%; in assay [10] (0,51 kg/ha), 0%. Moreover, the “herbizide Wirksamkeit” value in assay [11] and in assay [12] was “bessere herbizide Wirksamkeit” in each case.
